Read-outs that look alike come from different tables or passages of the source.
How the values were obtained:
[1] = unbuffered
[2] = 8 mg/mL
[3] = Example 3 stability of 20 mg/mL furosemide Tris-buffered solutions, pH 6.7 to 8.5, ambient temperature; details: Tris buffer pH 6.7 to 8.5, ambient temperature, over 48 hours
Description: Samples were stored at ambient temperature and subsequently analyzed after 24 and 48 hours of storage.

[4] = 25 mM Tris, nominal pH 7.0, 2-8° C., three months
[5] = 25 mM Tris, nominal pH 7.0, 25° C., three months
[6] = 25 mM Tris, nominal pH 7.0, 40° C., three months
[7] = 25 mM Tris, nominal pH 7.0, −20° C., three months
[8] = 25 mM Tris, nominal pH 7.4, 2-8° C., three months
[9] = 25 mM Tris, nominal pH 7.4, 25° C., three months
[10] = 25 mM Tris, nominal pH 7.4, 40° C., three months
[11] = 25 mM Tris, nominal pH 7.4, −20° C., three months
[12] = 25 mM Tris, nominal pH 8.0, 2-8° C., three months
[13] = 25 mM Tris, nominal pH 8.0, 25° C., three months
[14] = 25 mM Tris, nominal pH 8.0, 40° C., three months
[15] = 25 mM Tris, nominal pH 8.0, −20° C., three months
[16] = 50 mM Tris, nominal pH 7.0, 2-8° C., three months
[17] = 50 mM Tris, nominal pH 7.0, 25° C., three months
[18] = 50 mM Tris, nominal pH 7.0, 40° C., three months
[19] = 50 mM Tris, nominal pH 7.0, −20° C., three months
[20] = 50 mM Tris, nominal pH 7.4, 2-8° C., three months
[21] = 50 mM Tris, nominal pH 7.4, 25° C., three months
[22] = 50 mM Tris, nominal pH 7.4, 40° C., three months
[23] = 50 mM Tris, nominal pH 7.4, −20° C., three months
[24] = 50 mM Tris, nominal pH 8.0, 2-8° C., three months
[25] = 50 mM Tris, nominal pH 8.0, 25° C., three months
[26] = 50 mM Tris, nominal pH 8.0, 40° C., three months
[27] = 50 mM Tris, nominal pH 8.0, −20° C., three months
[28] = 100 mM Tris, nominal pH 7.0, 2-8° C., three months
[29] = 100 mM Tris, nominal pH 7.0, 25° C., three months
[30] = 100 mM Tris, nominal pH 7.0, 40° C., three months
[31] = 100 mM Tris, nominal pH 7.0, t0
[32] = 100 mM Tris, nominal pH 7.0, −20° C., three months
[33] = 100 mM Tris, nominal pH 7.4, 2-8° C., three months
[34] = 100 mM Tris, nominal pH 7.4, 25° C., three months
[35] = 100 mM Tris, nominal pH 7.4, 40° C., three months
[36] = 100 mM Tris, nominal pH 7.4, t0
[37] = 100 mM Tris, nominal pH 7.4, −20° C., three months
[38] = 100 mM Tris, nominal pH 8.0, 2-8° C., three months
[39] = 100 mM Tris, nominal pH 8.0, 25° C., three months
[40] = 100 mM Tris, nominal pH 8.0, 40° C., three months
[41] = 100 mM Tris, nominal pH 8.0, t0
[42] = 100 mM Tris, nominal pH 8.0, −20° C., three months
[43] = 25, 50, 100 mM Tris, pH 7.0, 7.4, 8.0, −20° C. to 40° C., three months

Structure (SMILES): NS(=O)(=O)c1cc(C(=O)O)c(NCc2ccco2)cc1Cl [Furosemide, 4-chloro-2-(furan-2-ylmethylamino)-5-sulfamoyl-benzoic acid]
- solution pH over time ([1]; 0.1 mg/mL and 8 mg/mL, adjusted to pH 8 to 9 with NaOH and HCl, monitored 72 hours): continually decrease
- reproducibility of observed pH values ([1]; 8 mg/mL, pH 8.5, same equivalents of furosemide, acid and base): varied widely
- Osmolality [2, 4]: 297 mOsm/kg H2O
- [Furosemide] [2, 4]: 8.01 mg/mL
- pH [2, 4]: 7.08
- Osmolality [2, 5]: 298 mOsm/kg H2O
- [Furosemide] [2, 5]: 7.91 mg/mL
- pH [2, 5]: 7.09
- Osmolality [2, 6]: 296 mOsm/kg H2O
- [Furosemide] [2, 6]: 7.89 mg/mL
- pH [2, 6]: 7.08
- Osmolality ([2]; 25 mM Tris, nominal pH 7.0, t0): 293 mOsm/kg H2O
- [Furosemide] ([2]; 25 mM Tris, nominal pH 7.0, t0): 8.09 mg/mL
- pH ([2]; 25 mM Tris, nominal pH 7.0, t0): 7.02
- Osmolality [2, 7]: 296 mOsm/kg H2O
- [Furosemide] [2, 7]: 7.91 mg/mL
- pH [2, 7]: 7.07
- Osmolality [2, 8]: 291 mOsm/kg H2O
- [Furosemide] [2, 8]: 7.79 mg/mL
- pH [2, 8]: 7.49
- Osmolality [2, 9]: 289 mOsm/kg H2O
- [Furosemide] [2, 9]: 7.81 mg/mL
- pH [2, 9]: 7.47
- Osmolality [2, 10]: 290 mOsm/kg H2O
- [Furosemide] [2, 10]: 7.90 mg/mL
- pH [2, 10]: 7.47
- Osmolality ([2]; 25 mM Tris, nominal pH 7.4, t0): 287 mOsm/kg H2O
- [Furosemide] ([2]; 25 mM Tris, nominal pH 7.4, t0): 8.00 mg/mL
- pH ([2]; 25 mM Tris, nominal pH 7.4, t0): 7.42
- Osmolality [2, 11]: 288 mOsm/kg H2O
- [Furosemide] [2, 11]: 7.92 mg/mL
- pH [2, 11]: 7.47
- Osmolality [2, 12]: 292 mOsm/kg H2O
- [Furosemide] [2, 12]: 7.97 mg/mL
- pH [2, 12]: 8.07
- Osmolality [2, 13]: 294 mOsm/kg H2O
- [Furosemide] [2, 13]: 7.76 mg/mL
- pH [2, 13]: 8.06
- Osmolality [2, 14]: 294 mOsm/kg H2O
- [Furosemide] [2, 14]: 7.99 mg/mL
- pH [2, 14]: 8.07
- Osmolality ([2]; 25 mM Tris, nominal pH 8.0, t0): 289 mOsm/kg H2O
- [Furosemide] ([2]; 25 mM Tris, nominal pH 8.0, t0): 8.08 mg/mL
- pH ([2]; 25 mM Tris, nominal pH 8.0, t0): 8.04
- Osmolality [2, 15]: 291 mOsm/kg H2O
- [Furosemide] [2, 15]: 7.91 mg/mL
- pH [2, 15]: 8.06
- Osmolality [2, 16]: 294 mOsm/kg H2O
- [Furosemide] [2, 16]: 8.02 mg/mL
- pH [2, 16]: 7.10
- Osmolality [2, 17]: 290 mOsm/kg H2O
- [Furosemide] [2, 17]: 8.07 mg/mL
- pH [2, 17]: 7.10
- Osmolality [2, 18]: 295 mOsm/kg H2O
- [Furosemide] [2, 18]: 7.94 mg/mL
- pH [2, 18]: 7.12
- Osmolality ([2]; 50 mM Tris, nominal pH 7.0, t0): 290 mOsm/kg H2O
- [Furosemide] ([2]; 50 mM Tris, nominal pH 7.0, t0): 8.06 mg/mL
- pH ([2]; 50 mM Tris, nominal pH 7.0, t0): 7.04
- Osmolality [2, 19]: 289 mOsm/kg H2O
- [Furosemide] [2, 19]: 8.12 mg/mL
- pH [2, 19]: 7.13
- Osmolality [2, 20]: 293 mOsm/kg H2O
- [Furosemide] [2, 20]: 8.10 mg/mL
- pH [2, 20]: 7.50
- Osmolality [2, 21]: 292 mOsm/kg H2O
- [Furosemide] [2, 21]: 7.87 mg/mL
- pH [2, 21]: 7.49
- Osmolality [2, 22]: 296 mOsm/kg H2O
- [Furosemide] [2, 22]: 7.97 mg/mL
- pH [2, 22]: 7.50
- Osmolality ([2]; 50 mM Tris, nominal pH 7.4, t0): 289 mOsm/kg H2O
- [Furosemide] ([2]; 50 mM Tris, nominal pH 7.4, t0): 8.09 mg/mL
- pH ([2]; 50 mM Tris, nominal pH 7.4, t0): 7.44
- Osmolality [2, 23]: 292 mOsm/kg H2O
- [Furosemide] [2, 23]: 7.93 mg/mL
- pH [2, 23]: 7.52
- Osmolality [2, 24]: 296 mOsm/kg H2O
- [Furosemide] [2, 24]: 7.84 mg/mL
- pH [2, 24]: 8.10
- Osmolality [2, 25]: 296 mOsm/kg H2O
- [Furosemide] [2, 25]: 7.82 mg/mL
- pH [2, 25]: 8.09
- Osmolality [2, 26]: 289 mOsm/kg H2O
- [Furosemide] [2, 26]: 7.95 mg/mL
- pH [2, 26]: 8.10
- Osmolality ([2]; 50 mM Tris, nominal pH 8.0, t0): 288 mOsm/kg H2O
- [Furosemide] ([2]; 50 mM Tris, nominal pH 8.0, t0): 8.14 mg/mL
- pH ([2]; 50 mM Tris, nominal pH 8.0, t0): 8.04
- Osmolality [2, 27]: 289 mOsm/kg H2O
- [Furosemide] [2, 27]: 7.93 mg/mL
- pH [2, 27]: 8.11
- Osmolality [2, 28]: 296 mOsm/kg H2O
- [Furosemide] [2, 28]: 7.89 mg/mL
- pH [2, 28]: 7.00
- Osmolality [2, 29]: 293 mOsm/kg H2O
- [Furosemide] [2, 29]: 7.79 mg/mL
- pH [2, 29]: 6.99
- Osmolality [2, 30]: 294 mOsm/kg H2O
- [Furosemide] [2, 30]: 7.87 mg/mL
- pH [2, 30]: 6.98
- Osmolality [2, 31]: 292 mOsm/kg H2O
- [Furosemide] [2, 31]: 8.04 mg/mL
- pH [2, 31]: 7.02
- Osmolality [2, 32]: 298 mOsm/kg H2O
- [Furosemide] [2, 32]: 7.90 mg/mL
- pH [2, 32]: 7.00
- Osmolality [2, 33]: 301 mOsm/kg H2O
- [Furosemide] [2, 33]: 7.95 mg/mL
- pH [2, 33]: 7.41
- Osmolality [2, 34]: 295 mOsm/kg H2O
- [Furosemide] [2, 34]: 7.82 mg/mL
- pH [2, 34]: 7.41
- Osmolality [2, 35]: 297 mOsm/kg H2O
- [Furosemide] [2, 35]: 7.90 mg/mL
- pH [2, 35]: 7.39
- Osmolality [2, 36]: 297 mOsm/kg H2O
- [Furosemide] [2, 36]: 8.17 mg/mL
- pH [2, 36]: 7.42
- Osmolality [2, 37]: 301 mOsm/kg H2O
- [Furosemide] [2, 37]: 7.92 mg/mL
- pH [2, 37]: 7.42
- Osmolality [2, 38]: 295 mOsm/kg H2O
- [Furosemide] [2, 38]: 7.91 mg/mL
- pH [2, 38]: 7.99
- Osmolality [2, 39]: 288 mOsm/kg H2O
- [Furosemide] [2, 39]: 7.79 mg/mL
- pH [2, 39]: 7.97
- Osmolality [2, 40]: 294 mOsm/kg H2O
- [Furosemide] [2, 40]: 7.79 mg/mL
- pH [2, 40]: 7.98
- Osmolality [2, 41]: 292 mOsm/kg H2O
- [Furosemide] [2, 41]: 8.08 mg/mL
- pH [2, 41]: 7.99
- Osmolality [2, 42]: 296 mOsm/kg H2O
- [Furosemide] [2, 42]: 7.89 mg/mL
- pH [2, 42]: 7.99
- change in furosemide concentration [2, 43]: no change
- change in osmolality [2, 43]: no change
- change in pH [2, 43]: no change
- change in visual appearance [2, 43]: no change
- change in furosemide concentration [3]: No decrease
- pH deviation from the initial value [3]: ≤ 0.1 units
